{"source": "patent US20210038589A1", "about": "“USES, COMPOSITIONS AND METHODS” (priority 2018, published 2021)", "key": {"[1]": {"system": "gamma oscillations in mouse hippocampal slices", "assay": "Prevention of Aβ-induced degradation of kainate-induced gamma oscillations in hippocampal slices (interface chamber)", "type": "cell-based", "conditions": "50 nM Aβ in last 15 min, 100 nM KA", "protocol": "Previously we have characterized the effects of acute Aβ on the hippocampal circuitry of WT mice. […] During the last 15 min 50 nM Aβ was added to the incubation solution. […] Control experiments were also performed by incubating slice just with ACSF for 1 h (with Aβ present for the last 15 min) or incubating just with ACSF for 1 h. […] Pmzd 10 μM: 9.95±1.82×10^-9V^2, n=10, p<0.0001 vs Aβ, FIGS. 4A,B,C,F, light and dark green, respectively). […] Horizontal sections (350 μm thick) of the ventral hippocampi of both hemispheres were prepared with a Leica VT1200S vibratome (Leica Microsystems). Immediately after cutting, slices were transferred into a humidified interface holding chamber containing standard ACSF (in mM): 124 NaCl, 30 NaHCO3, 10 glucose, 1.25 NaH2PO4, 3.5 KCl, 1.5 MgCl2, 1.5 CaCl2, continuously supplied with humidified carbogen. The chamber was held at 34° C. during slicing and subsequently allowed to cool down to room temperature ( 22° C.) for a minimum of 1 hour. Recordings were carried out in hippocampal area CA3 with borosilicate glass microelectrodes, pulled to a resistance of 3-7 MΩ. Local field potential (LFP) were recorded using microelectrodes filled with ACSF placed in CA3 stratum pyramidale. LFP oscillations were elicited by applying kainic acid (100 nM) to the extracellular bath, Interface chamber LFP recordings were performed with a 4-channel […] amplifier (University of Cologne, Germany). Submerged chamber LFP recordings and patch-clamp recordings were performed using a Multiclamp 700B (Molecular Devices, CA, USA). In order to maintain stable LFP oscillations all recordings were performed at 34° C. with a perfusion rate of 3-5 ml per minute of aerated ACSF containing 100 nM Kainate. The oscillations were allowed to stabilize for at least 20 minutes before any recordings were performed. Power spectra density plots (from 60 s long LFP recordings) were calculated in averaged Fourier-segments of 8192 points using Axograph X (Kagi, Berkeley, Calif., USA). […] Coefficient of rhythmicity (Cr) was calculated in order to assess the rhythmicity of gamma oscillations (26, 27) and was defined as Cr=(α-β)/(α+β) were α corresponds to the value of the height of the second peak and β to the first valley in the normalized autocorrelogram. […] Only recordings having Cr≥0.01 were considered rhythmic."}, "[2]": {"system": "gamma oscillations in mouse hippocampal slices", "assay": "Rescue of gamma oscillations previously degraded by Aβ in hippocampal slices (submerged chamber)", "type": "cell-based", "conditions": "Aβ still present", "description": "Hippocampal slices were placed in a submerged recording chamber where gamma oscillations were induced by bath perfusion of 100 nM KA and allowed to stabilize for 20-30 min. Continuous recordings of LFP gamma oscillations were performed in 4 different conditions (FIG. 5). All groups were initially activated with Kainate. In a control group of slices oscillations were recorded for 40 min after stabilization without any other compound addition (control, n=5, grey). All other groups were perfused with 1 μM Aβ after stabilization of the oscillations for a minimum of 20 min. For these experiments the concentration of Aβ applied was increased to 1 μM in order to overcome the method-dependent lower signal amplitude due to the submerged recording conditions (8).\nHippocampal slices were placed on a submerged recording chamber where gamma oscillations were induced by bath perfusion of 100 nM Kainate and allowed to stabilize for 20-30 minutes. Continuous recordings of LFP gamma oscillations were performed in 3 different conditions. All groups were initially activated with kainate. In a control group of slices oscillations were recorded for 40 minutes after their stabilization without any other compound addiction (control, n=5; see FIG. 5). All the other groups were perfused with Aβ 1 μM after the stabilization of the oscillations for a minimum of 20 minutes."}}, "data": [{"smiles": "Clc1ccc(N2CCN(Cc3c[nH]c4ncccc34)CC2)cc1", "note": "[L745,870]", "values": [{"measurement": "gamma oscillation power", "setting": "[1]; 1 h incubation with 500 nM compound", "value": "1.61±0.52 ×10^−9V^2"}]}, {"smiles": "CC(C)(C)CCN1C[C@@H]2[C@@H](CNC(=O)c3cc(Cl)cc(Cl)c3)[C@@H]2C1", "note": "[ML-218]", "values": [{"measurement": "gamma power after treatment application, relative to Aβ", "setting": "[2]; 5 μM compound applied after 20 min of 1 μM Aβ", "value": "2.16±0.53 of Aβ"}]}, {"smiles": "CC(C)[C@H]1c2ccc(F)cc2CC[C@@]1(CCN(C)CCCc1nc2ccccc2[nH]1)OC(=O)C1CC1", "note": "[NNC55-0396]", "values": [{"measurement": "gamma power after treatment application, relative to Aβ", "setting": "[2]; 10 μM compound applied after 20 min of 1 μM Aβ", "value": "1.85±0.15 of Aβ"}]}, {"smiles": "CC1CCN(CC[C@H]2CCCN2S(=O)(=O)c2cccc(O)c2)CC1", "note": "[SB-269970, ®-3-(2-(2-(4-methylpiperidin-1-yl)ethil)pyrrolidine-1-sulfonyl) phenol]", "values": [{"measurement": "gamma oscillation power", "setting": "[1]; 1 h incubation with 1 μM compound", "value": "1.47±0.24 ×10^−9V^2"}]}, {"smiles": "CCN1CCCC1CNC(=O)c1cc(S(N)(=O)=O)ccc1OC", "note": "(centres unmarked) [Sulpiride]", "values": [{"measurement": "gamma oscillation power", "setting": "[1]; 1 h incubation with 5 μM compound", "value": "2.23±0.52 ×10^−9V^2"}]}]}
